For assay [1], the species on record is Cavia porcellus. In words: Compound was evaluated for the increase in duration or cardiac APD (action potential duration) at 90% repolarization, using isolated guinea pig ventricular myocytes at concentration of 10000 nM; No detectable change. It is filed as functional. Conditions: Heart, Ventricular myocyte.
Assay [2] is filed under the species Cavia porcellus. In words: Compound was evaluated for the increase in duration or cardiac APD (action potential duration) at 90% repolarization, using isolated guinea pig ventricular myocytes at concentration of 33000 nM; No detectable change. Format: functional. Conditions: Heart, Ventricular myocyte.
Assay [3] is filed under the species Cavia porcellus. Kind of assay: Compound was evaluated for the increase in duration or cardiac APD (action potential duration) at 90% repolarization, using isolated guinea pig ventricular myocytes at concentration of 100 nM. Further details: unit not given here. It is filed as functional, Heart, Ventricular myocyte.
The species named for assay [4] is Cavia porcellus. In words: Compound was evaluated for the increase in duration or cardiac APD (action potential duration) at 90% repolarization, using isolated guinea pig ventricular myocytes at concentration of 1000 nM. It is filed as functional, Heart, Ventricular myocyte. Also on record: unit not given here.
For assay [5], the species on record is Cavia porcellus. Kind of assay: Compound was evaluated for the increase in duration or cardiac APD (action potential duration) at 90% repolarization, using isolated guinea pig ventricular myocytes at concentration of 10000 nM. It is filed as functional, Heart, Ventricular myocyte. Further details: unit not given here.
Assay [6] is filed under the species Cavia porcellus. Kind of assay: Compound was evaluated for the increase in duration or cardiac APD (action potential duration) at 90% repolarization, using isolated guinea pig ventricular myocytes at concentration of 1 nM. Format: functional, Heart, Ventricular myocyte.
The species entered for assay [7] is Cavia porcellus. Kind of assay: Compound was evaluated for the increase in duration or cardiac APD (action potential duration) at 90% repolarization, using isolated guinea pig ventricular myocytes at concentration of 10 nM. Format: functional, Heart, Ventricular myocyte.
For assay [8], the species on record is Cavia porcellus. In words: Compound was evaluated for the increase in duration or cardiac APD (action potential duration) at 90% repolarization, using isolated guinea pig ventricular myocytes at concentration of 50 nM. Format: functional, Heart, Ventricular myocyte.
Assay [9] is filed under the species Cavia porcellus. In words: Compound was evaluated for the increase in duration or cardiac APD (action potential duration) at 90% repolarization, using isolated guinea pig ventricular myocytes at concentration of 250 nM. Format: functional, Heart, Ventricular myocyte.
The species entered for assay [10] is Cavia porcellus. In words: Compound was evaluated for the increase in duration or cardiac APD (action potential duration) at 90% repolarization, using isolated guinea pig ventricular myocytes at concentration of 33000 nM. It is filed as functional, Heart, Ventricular myocyte.
For assay [11], the species on record is Cavia porcellus. Kind of assay: Compound was evaluated for the increase in duration or cardiac APD (action potential duration) at 90% repolarization, using isolated guinea pig ventricular myocytes at concentration of 10000 nM; no detectable change. Format: functional. Conditions: Heart, Ventricular myocyte.
The species named for assay [12] is Cavia porcellus. In words: Compound was evaluated for the increase in duration or cardiac APD (action potential duration) at 90% repolarization, using isolated guinea pig ventricular myocytes at concentration of 50000 nM. Format: functional, Heart, Ventricular myocyte.
The species entered for assay [13] is Cavia porcellus. In words: Compound was evaluated for the increase in duration or cardiac APD (action potential duration) at 90% repolarization, using isolated guinea pig ventricular myocytes at concentration of 75000 nM. Format: functional, Heart, Ventricular myocyte.
The species named for assay [14] is Cavia porcellus. In words: Compound was evaluated for the increase in duration or cardiac APD (action potential duration) at 90% repolarization, using isolated guinea pig ventricular myocytes at concentration of 33000 nM; no detectable change. Particulars: Heart, Ventricular myocyte. It is filed as functional.
The species named for assay [15] is Cavia porcellus. Kind of assay: Compound was evaluated for the increase in duration or cardiac APD (action potential duration) at 90% repolarization, using isolated guinea pig ventricular myocytes at concentration of 50000 nM; no detectable change. It is filed as functional. Conditions: Heart, Ventricular myocyte.

Data on 24 compounds can be found in ChEMBL document CHEMBL1125688, “The synthesis and potassium channel blocking activity of some (4-methanesulfonamidophenoxy)propanolamines as potential class III antiarrhythmic agents” (1991).

As for `CC(C)NCC(O)COc1ccc(N(C)S(C)(=O)=O)cc1` (stereo unspecified), the “Delta APD90” value in the assay listed under Cavia porcellus [1] and in the assay filed under Cavia porcellus [2] was “No detectable change” throughout.
With `CN(CCCc1ccccc1)CC(O)COc1ccc(NS(C)(=O)=O)cc1` (stereo unspecified), in the assay filed under Cavia porcellus [3], the “Delta APD90” value turned out to be 70.
Take `COc1ccc(CCNCC(O)COc2ccc(NS(C)(=O)=O)cc2)cc1OC` (stereo unspecified): the “Delta APD90” value in the assay listed under Cavia porcellus [4] was 15; in the assay filed under Cavia porcellus [5], 80.
In the case of `CS(=O)(=O)Nc1ccc(OCC(O)CN2CCC(c3ccccc3)CC2)cc1` (stereo unspecified), the entries for the “Delta APD90” value in the assay listed under Cavia porcellus [3] and in the assay listed under Cavia porcellus [4] were 48 and 100, respectively.
For `CN(CCc1ccc(Cl)c(Cl)c1)CC(O)COc1ccc(NS(C)(=O)=O)cc1` (stereo unspecified), the “Delta APD90” value worked out at 20 in the assay filed under Cavia porcellus [6], 85 in the assay filed under Cavia porcellus [3] and 42 in the assay filed under Cavia porcellus [7].
As for `CS(=O)(=O)Nc1ccc(OCC(O)CNCCc2ccccc2)cc1` (stereo unspecified), the “Delta APD90” value in the assay listed under Cavia porcellus [5] came out at 80.
In the case of `CN(CCOc1ccc(NS(C)(=O)=O)cc1)CCc1ccc(NS(C)(=O)=O)cc1` [DOFETILIDE], the figures for the “Delta APD90” value in the assay filed under Cavia porcellus [3], in the assay listed under Cavia porcellus [8] and in the assay listed under Cavia porcellus [9] were 63, 23 and 100, respectively.
As to `CS(=O)(=O)Nc1ccc(OCC(O)CN2CCC(c3ccc(C(F)(F)F)cc3)CC2)cc1` (stereo unspecified), the entries for the “Delta APD90” value in the assay listed under Cavia porcellus [6], in the assay listed under Cavia porcellus [8] and in the assay filed under Cavia porcellus [7] were 40, 100 and 100, respectively.
For the compound `CC(C)NCC(O)COc1ccc(NS(C)(=O)=O)cc1` (stereo unspecified), the “Delta APD90” value in the assay listed under Cavia porcellus [10] was 33; in the assay listed under Cavia porcellus [11], “No detectable change”.
For the compound `CCN(CC)CC(O)COc1ccc(NS(C)(=O)=O)cc1` (stereo unspecified), the “Delta APD90” value in the assay filed under Cavia porcellus [4] is reported as 25; in the assay listed under Cavia porcellus [5], 85.
With `CS(=O)(=O)Nc1ccc(OCC(O)CN2CCC(c3ccc(Cl)cc3)CC2)cc1` (stereo unspecified), the “Delta APD90” value in the assay filed under Cavia porcellus [6] was determined as 50; in the assay listed under Cavia porcellus [7], 100.
For `CC(C)NCC(O)c1ccc(NS(C)(=O)=O)cc1` (stereo unspecified) [SOTALOL], the “Delta APD90” value was determined as 30 in the assay listed under Cavia porcellus [12] and 75 in the assay filed under Cavia porcellus [5].
As to `O=C(O)c1ccc(OCC(O)CN2CCC(c3ccccc3)CC2)cc1` (stereo unspecified), the “Delta APD90” value in the assay listed under Cavia porcellus [4] is listed as 36.
Consider `CC(C)(C)NCC(O)COc1ccc(NS(C)(=O)=O)cc1` (stereo unspecified), for which the results for the “Delta APD90” value in the assay filed under Cavia porcellus [12], in the assay filed under Cavia porcellus [10] and in the assay listed under Cavia porcellus [13] were 75, 40 and 75, respectively.
Consider `CN(C/C=C/c1ccccc1)CC(O)COc1ccc(NS(C)(=O)=O)cc1` (stereo unspecified), for which the figures for the “Delta APD90” value in the assay listed under Cavia porcellus [3] and in the assay listed under Cavia porcellus [8] were 100 and 50, respectively.
In the case of `COc1ccc(CCN(CC(O)COc2ccc(NS(C)(=O)=O)cc2)C(C)C)cc1OC` (stereo unspecified), the “Delta APD90” value came out at 65 in the assay filed under Cavia porcellus [3] and 100 in the assay listed under Cavia porcellus [4].
As for `CS(=O)(=O)Nc1ccc(OCC(O)CN2CCN(c3ccccc3)CC2)cc1` (stereo unspecified), the “Delta APD90” value stood at 78 in the assay listed under Cavia porcellus [4] and 100 in the assay filed under Cavia porcellus [5].
Regarding `CN(c1ccc(OCC(O)CNCCc2ccccc2)cc1)S(C)(=O)=O` (stereo unspecified), the “Delta APD90” value in the assay listed under Cavia porcellus [14] and in the assay filed under Cavia porcellus [11] was “No detectable change” each time.
Turning to `CS(=O)(=O)Nc1ccc(OCC(O)CNCCc2ccc(Cl)cc2)cc1` (stereo unspecified), the “Delta APD90” value in the assay filed under Cavia porcellus [5] came to 90.
Take `CNCC(O)COc1ccc(NS(C)(=O)=O)cc1` (stereo unspecified): the “Delta APD90” value in the assay filed under Cavia porcellus [15] and in the assay filed under Cavia porcellus [11] was “No detectable change” each time.
Consider `CS(=O)(=O)Nc1ccc(OCC(O)CN2CCc3ccccc3C2)cc1` (stereo unspecified), for which the “Delta APD90” value in the assay listed under Cavia porcellus [3] amounted to 60.
`COc1ccc(CCN(C)CC(O)COc2ccc(NS(C)(=O)=O)cc2)cc1OC` (stereo unspecified): the “Delta APD90” value in the assay filed under Cavia porcellus [3] is on record as 40; in the assay filed under Cavia porcellus [4], 100.
Taken in the same sequence, the figures for `CN(CCc1ccccc1)CC(O)COc1ccc(NS(C)(=O)=O)cc1` (stereo unspecified) were 48 and 88.
On to `CS(=O)(=O)Nc1cccc(OCC(O)CN2CCC(c3ccccc3)CC2)c1` (stereo unspecified), for which, in the assay listed under Cavia porcellus [4], the “Delta APD90” value is recorded as 48.
